Measurements reported in US20250152718A1, “NUCLEIC ACID DELIVERY MATERIAL” (National University Corporation Tokai National Higher …, priority 2022, published 2025).

System: HEK293T cells
Assay: Nucleic acid delivery test (plasmid DNA with GFP gene, quantitative PCR)
Type: cell-based
Settings: buffered saline HBS, plasmid DNA 4.7 kb with GFP gene, after 48 hours
Description: Dimethylformamide solutions (10 mmol/L, 1 μL) of the aromatic compounds shown in Tables 1 and 2 were each dissolved in the buffered salines (25 μL) shown in Tables 1 and 2. However, in Comparative Example 2, no aromatic compound was used, and only dimethylformamide was used. The two resulting solutions were mixed and allowed to stand at room temperature for 30 minutes to complex the aromatic compound with the plasmid DNA. Thereafter, 450 μL of the buffered saline used for the complexification and 500 μL of Dulbecco's modified Eagle medium (DMEM, Wako) containing 10% fetal bovine serum were added, and the resulting complex was added to HEK293T cells (mammalian cells). After 48 hours, the amount of nucleic acid was measured by quantitative PCR.
In Tables 1 to 3, as for the buffered salines, “MEM” means Eagle's minimum essential medium, “TBS” means Tris-buffered saline, “HBS” means HEPES-buffered saline, and “MBS” means MES-buffered saline.

| Structure (SMILES) | Amount of nucleic acid relative comparison with Example 1 |
| --- | --- |
| NCCc1ccc(-c2cc3c(-c4ccc(CCN)cc4)cc4c(-c5ccc(CCN)cc5)cc5c(-c6ccc(CCN)cc6)cc6c(-c7ccc(CCN)cc7)cc2c2c6c5c4c32)cc1 [KTU192] | 0.6727 |
| NCCOc1ccc(-c2cc3c(-c4ccc(OCCN)cc4)cc4c(-c5ccc(OCCN)cc5)cc5c(-c6ccc(OCCN)cc6)cc6c(-c7ccc(OCCN)cc7)cc2c2c6c5c4c32)cc1 [KTU204] | 0.6309 |
| c1cc(N2CCNCC2)ccc1-c1cc2c(-c3ccc(N4CCNCC4)cc3)cc3c(-c4ccc(N5CCNCC5)cc4)cc4c(-c5ccc(N6CCNCC6)cc5)cc5c(-c6ccc(N7CCNCC7)cc6)cc1c1c5c4c3c21 [KTU205] | 1.112 |
